For the assay, the target named is T1, FLAP (Homo sapiens, UniProt P20292).
T1 construct: A 100,000×g pellet from human leukocyte 10,000×g supernatants (1) is the source of FLAP; from tissue; host or cells: human leukocytes (100,000 x g membrane pellet)
T1 sequence (P20292 1-161): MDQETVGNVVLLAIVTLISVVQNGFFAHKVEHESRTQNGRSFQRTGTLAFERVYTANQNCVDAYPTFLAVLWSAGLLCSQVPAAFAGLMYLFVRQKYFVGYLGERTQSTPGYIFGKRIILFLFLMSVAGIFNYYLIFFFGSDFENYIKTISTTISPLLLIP
In words: FLAP Binding Assay. As to conditions: competition with radiolabelled Compound A; 100,000×g pellet membranes from human leukocyte; 20 minute incubation at room temperature. How it is done: A 100,000×g pellet from human leukocyte 10,000×g supernatants (1) is the source of FLAP. The 100,000×g pellet membranes were resuspended in Tris-Tween assay buffer (100 mM Tris HCl pH 7.4, 140 mM NaCl, 2 mM EDTA, 0.5 mM dithiothreitol, 5% glycerol, 0.05% Tween 20) to yield a final protein concentration of 50 μg to 150 μg/ml. Aliquots (100 μl) of membrane suspension were added to 12 mm×75 mm polypropylene tubes containing 100 μl Tris-Tween assay buffer, 30,000 cpm of Compound A in 5 μl MeOH:assay buffer (1:1), and 2 μl dimethyl sulfoxide or competitor (i.e., the compound to be tested) in dimethyl sulfoxide. Compound B (10 μM final concentration) was used to determine non-specific binding. After a 20 minute incubation at room temperature, tube contents were diluted to 4 ml with cold 0.1 M Tris HCl pH 7.4, 0.05% Tween 20 wash buffer and the membranes were collected by filtration of GFB filters presoaked in the wash buffer. Tubes and filters were rinsed with 2×4 ml aliquots of cold wash buffer. Filters were transferred to 12 mm×3.5 mm polystyrene tubes for determination of radioactivity by gamma-scintillation counting.
Specific binding is defined as total binding minus non-specific binding. Total binding was Compound A bound to membranes in the absence of competitor; non-specific binding was Compound A bound in the presence of 10 uM Compound B. Preparation of Compound A is described in reference 1, below. The IC50 values were obtained by computer analysis (see reference 2, below) of the experimental data.
Regarding `COc1cncc(-c2ccc(C(C)(c3ccc(-c4noc(C(C)(C)O)n4)cn3)C(C)C)cc2)c1` (stereo not shown) [Example 1Ac, 2-[3-(6-{1-[4-(5-methoxypyridin-3-yl)phenyl]-1,2-dimethylpropyl}pyridin-3-yl)-1,2,4-oxadiazol-5-yl]propan-2-ol], the IC50 (as a rule, the concentration that inhibits the measured activity by half) is 2.1 nM.
As for `COc1cncc(-c2ccc(C(C)(c3ccc(-c4noc(C5(N)CC5)n4)cn3)C(C)C)cc2)c1` (stereo not shown) [Example 2b], the figure is 3.6 nM; as for `COc1cncc(-c2ccc(C(C)(c3ccc(-c4ccc(C(F)(F)F)nn4)cn3)C(C)C)cc2)c1` (stereo not shown) [Example 4Ad, 3-(6-{1-[4-(5-methoxypyridin-3-yl)phenyl]-1,2-dimethylpropyl}pyridin-3-yl)-6-(trifluoromethyl)pyridazine], 1.4 nM; as for `COc1cncc(-c2ccc(C(C)(c3ccc(-c4ccc(C(C)(C)O)nn4)cn3)C(C)C)cc2)c1` (stereo not shown) [Example 4d, 2-[6-(6-{1-[4-(5-methoxypyridin-3-yl)phenyl]-1,2-dimethylpropyl}pyridin-3-yl)pyridazin-3-yl]propan-2-ol], 1.1 nM.
As for `CC(C)C(C)(c1ccc(-c2cnc(N)nc2)cc1)c1ccc(-c2ccc(C(C)(C)O)nn2)cn1` (stereo not shown) [Example 4f, 2-[6-(6-{1-[4-(2-aminopyrimidin-5-yl)phenyl]-1,2-dimethylpropyl}pyridin-3-yl)pyridazin-3-yl]propan-2-ol], the figure is 0.5 nM; as for `CC(C)C(C)(c1ccc(-c2ccc(N)nn2)cc1)c1ccc(-c2ccc(C(C)(C)O)nn2)cn1` (stereo not shown) [Example 4g, 2-[6-(6-{1-[4-(6-aminopyridazin-3-yl)phenyl]-1,2-dimethylpropyl}pyridin-3-yl)pyridazin-3-yl]propan-2-ol], 0.6 nM.
As for `COc1cncc(-c2ccc(C(C)(c3ccc(-c4ccc(S(C)(=O)=O)nn4)cn3)C(C)C)cc2)c1` (stereo not shown) [Example 5a, 3-(6-{1-[4-(5-methoxypyridin-3-yl)phenyl]-1,2-dimethylpropyl}pyridin-3-yl)-6-(methylsulfonyl)pyridazine], the figure is 0.7 nM; as for `CC(C)C(C)(c1ccc(-c2cncc(OCc3ccccc3)c2)cc1)c1ccc(-c2ccc(C(F)(F)F)nn2)cn1` (stereo not shown) [Example 6Da, 3-[6-(1-{4-[5-(benzyloxy)pyridin-3-yl]phenyl}-1,2-dimethylpropyl)pyridin-3-yl]-6-(trifluoromethyl)pyridazine], 2.4 nM; as for `CC(C)C(C)(c1ccc(-c2cncc(OCF)c2)cc1)c1ccc(-c2ccc(C(F)(F)F)nn2)cn1` (stereo not shown) [Example 6c, 3-[6-(1-{4-[5-(fluoromethoxy)pyridin-3-yl]phenyl}-1,2-dimethylpropyl)pyridin-3-yl]-6-(trifluoromethyl)pyridazine], 2.8 nM.
Turning to `CC(C)C(C)(c1ccc(-c2cnc(N)nc2)cc1)c1ccc(C(C)(C)O)cn1` (stereo not shown) [Example 7Ad, 2-(6-{1-[4-(2-aminopyrimidin-5-yl)phenyl]-1,2-dimethylpropyl}pyridin-3-yl)propan-2-ol], the IC50 is 1.2 nM.
With `CC(C)C(C)(c1ccc(-c2ccc(N)nn2)cc1)c1ccc(C(C)(C)O)cn1` (stereo not shown) [Example 7Bd, 2-(6-(1-[4-(6-aminopyridazin-3-yl)phenyl]-1,2-dimethylpropyl)pyridin-3-yl)propan-2-ol], the half-inhibitory concentration (IC50) turned out to be 2.3 nM.
As for `CC(C)(C)C(c1ccc(OCc2ccccn2)cc1)c1ccc(-c2nnc(N)o2)cn1` (stereo not shown) [Example 8a, 5-(6-{2,2-dimethyl-1-[4-(pyridin-2-ylmethoxy)phenyl]pronyl}pyridin-3-yl)-1,3,4-oxadiazol-2-amine], the figure is 5.8 nM; as for `Cn1nnc(-c2ccc(C(c3ccc(OCc4ccccn4)cc3)C(C)(C)C)nc2)n1` (stereo not shown) [Example 9b, 2-{2,2-dimethyl-1-[4-(pyridin-2-ylmethoxy)phenyl]propyl}-5-(2-methyl-2H-tetrazol-5-yl)pyridine], 14 nM; as for `COC(=O)c1ccc(-c2ccc(C(C)(c3ccc(OCc4ccccn4)cc3)C(C)C)nc2)nn1` (stereo not shown) [Example 10Ah, methyl 6-(6-{1,2-dimethyl-1-[4-(pyridin-2-ylmethoxy)phenyl]propyl}pyridin-3-yl)pyridazine-3-carboxylate], 0.7 nM.
As for `CC(C)C(C)(c1ccc(OCc2ccccn2)cc1)c1ccc(-c2ccc(C(C)(C)O)nn2)cn1` (stereo not shown) [Example 10Aj, 2-[6-(6-{1,2-dimethyl-1-[4-(pyridin-2-ylmethoxy)phenyl]propyl}pyridin-3-yl)pyridazin-3-yl]propan-2-ol], the figure is 0.7 nM; as for `CC(C)C(C)(c1ccc(OCc2nccs2)cc1)c1ccc(-c2noc(C(C)(C)O)n2)cn1` (stereo not shown) [Example 10Ca, 2-[3-(6-{1,2-dimethyl-1-[4-(1,3-thiazol-2-ylmethoxy)phenyl]propyl}pyridin-3-yl)-1,2,4-oxadiazol-5-yl]propan-2-ol], 2.9 nM.

(Values after US8440672B2, “Diphenyl substituted alkanes” (Merck Sharp & Dohme Corp., priority 2006, dated 2013).)
